Laboratory results from patent US20180298405A1, “METHODS AND COMPOSITIONS TO INCREASE HUMAN SOMATIC CELL NUCLEAR TRANSFER (SCNT) EFFICIENCY BY REMOVING HISTONE H3-LYSINE TRIMETHYLATION, AND DERIVATION OF HUMAN NT-ESC” (CHILDREN'S MEDICAL CENTER CORPORATION, priority 2015, published 2018).

System: reprogramming resistant regions (RRRs) / ZGA genes
Test: RNA-seq of late 8-cell human SCNT embryos with or without KDM4A mRNA injection (ZGA of RRRs, KDM4A-responsive genes)
Assay type: cell-based
Conditions: KDM4A SCNT 8-cell embryos
Text: A sliding window (size 20 kb, step size 10 kb) was used to assess the genome-wide expression level of 4-cell and 8-cell human embryos. For each window, the expression level was quantified with normalized RPM (reads per millions of uniquely mapped reads). […] These activated regions were classed into three groups based on their expression differences in human SCNT and IVF 8-cell embryos.
The SCNT embryos used for ZGA analysis were generated using oocytes donated by a single healthy person (#64) and dermal fibroblast cells from an AMD patient (DFB-8). SCNT and IVF embryos were cultured up to late 8-cell stage, when the compaction of blastomeres is initiated, then they were treated briefly with acid Tyrode solution to remove zona pellucida. To prepare for the 8-cell SCNT embryo, oocytes from a single oocyte donor, and skin fibroblast cells from a single somatic nuclear donor were used. All the procedures are the same as described in the “Human SCNT procedure and KMD4A mRNA injection” section. Only embryos that reached the late 8-cell stage synchronically 74 hours post activation were collected and used for this experiment.
For preparation of the control IVF embryos, several donated early 8-cell stage IVF embryos were thawed and cultured for 5-7 hours to allow them to reach late 8-cell stage before being processed. After removal of the zona pellucida, the denuded embryos were washed 3 times in PBS, loaded into RNAse and DNAse free PCR tubes, spin downed, and snap frozen in liquid nitrogen. Then, they were kept at −80° C. until use. As controls, dermal fibroblast cells of somatic nuclear donors were also prepared. Those fibroblast cells were cultured in a 25 cm^2 flask in DMEM 10% FBS, and approximately 10,000 cells/donor were collected, snap frozen, and stored at −80° C. until use.
Five 8-cell embryos for each group were directly lysed and used for cDNA synthesis using SMART-Seq v4 Ultra Low Input RNA Kit (Clontech). For MEF donor, 10 ng total RNA was used for cDNA synthesis using SMART-Seq v4 Ultra Low Input RNA Kit. After amplification, the cDNA samples were fragmented using Covaris sonicator M220 to an average size of 150 bp (Covaris). Sequencing libraries were made with the fragmented DNA using NEBNext Ultra DNA Library Prep Kit for Illumina according to manufacturer's instruction (New England Biolabs) with different barcodes. For each RNA-seq analysis of hESCs, 1 μg total RNA was used for mRNA purification. Barcoded RNA-seq libraries were generated using NEBNext Ultra Directional RNA Library Prep Kit for Illumina (New England Biolabs). Single end 50 bp sequencing was performed on a HiSeq 2500 sequencer (Illumina). Sequencing reads were mapped to the human genome (hg19) with Tophat2. All programs were performed with default settings (unless otherwise specified). At least 22 million uniquely mapped reads were obtained for each sequencing library, and subsequently assembled into transcripts guided by the reference annotation (Refseq gene models) with Cufflinks v2.0.2. Expression level of each gene was quantified with normalized FPKM (fragments per kilobase of exon per million mapped fragments). Statistical analyses were performed with R (available at: “www.r-project.org/”). Independent 2 group Wilcoxon rank sum tests were used to compare distributions using the wilcox.test function in R. Pearson's r coefficient was calculated using the cor function with default parameters. The hierarchical clustering analysis of the global gene expression pattern in different samples was carried out using heatmap.2 function (gplots package) in R.

## KDM4A mRNA: in vitro transcribed mRNA of full length human KDM4A/JHDM3A cDNA, an H3K9me3 demethylase (SEQ ID NO: 1)
  NOC4L Expression level (FPKM): 0.61 FPKM
  NOP58 Expression level (FPKM): 55.54 FPKM
  NUDT9 Expression level (FPKM): 1.35 FPKM
  PAGE5 Expression level (FPKM): 1.86 FPKM
  PDCD11 Expression level (FPKM): 1.88 FPKM
  PDE4DIP Expression level (FPKM): 4.04 FPKM
  PHOSPHO1 Expression level (FPKM): 0.23 FPKM
  PIK3R4 Expression level (FPKM): 1.31 FPKM
  PLBD1 Expression level (FPKM): 0.74 FPKM
  PLD2 Expression level (FPKM): 1 FPKM
  PLVAP Expression level (FPKM): 1.63 FPKM
  POLR3K Expression level (FPKM): 109.26 FPKM
  POTEM Expression level (FPKM): 1.96 FPKM
  PPM1N Expression level (FPKM): 0.89 FPKM
  PPP2CB Expression level (FPKM): 1.07 FPKM
  PRAMEF3 Expression level (FPKM): 1.48 FPKM
  PRAMEF4 Expression level (FPKM): 18.29 FPKM
  PRAMEF6 Expression level (FPKM): 14.29 FPKM
  PRAMEF10 Expression level (FPKM): 49.42 FPKM
  PRAMEF11 Expression level (FPKM): 18.18 FPKM
  PRAMEF17 Expression level (FPKM): 0.66 FPKM
  PRPF39 Expression level (FPKM): 3.48 FPKM
  PTPN22 Expression level (FPKM): 1.15 FPKM
  RAB9A Expression level (FPKM): 1.37 FPKM
  RASA2 Expression level (FPKM): 1 FPKM
  RFK Expression level (FPKM): 2.86 FPKM
  RNU11 Expression level (FPKM): 3.75 FPKM
  RP2 Expression level (FPKM): 1.31 FPKM
  RPF2 Expression level (FPKM): 102.42 FPKM
  RPS6KB2 Expression level (FPKM): 0.32 FPKM
  SAMD8 Expression level (FPKM): 4.34 FPKM
  SCO1 Expression level (FPKM): 1.99 FPKM
  SEPX1 Expression level (FPKM): 2.34 FPKM
  SERTAD1 Expression level (FPKM): 7.03 FPKM
  SFTPD Expression level (FPKM): 0.61 FPKM
  SGCG Expression level (FPKM): 1.03 FPKM
  SGPP1 Expression level (FPKM): 1.39 FPKM
  SHFM1 Expression level (FPKM): 21.11 FPKM
  SIAH1 Expression level (FPKM): 88.93 FPKM
  SNAPC1 Expression level (FPKM): 17.7 FPKM
  SNAR-C3 Expression level (FPKM): 98.14 FPKM
  SNAR-E Expression level (FPKM): 2468.68 FPKM
  SNHG9 Expression level (FPKM): 63.59 FPKM
  SNHG12 Expression level (FPKM): 7.02 FPKM
  SPINK7 Expression level (FPKM): 12.41 FPKM
  SRA1 Expression level (FPKM): 5.51 FPKM
  SSX3 Expression level (FPKM): 5.71 FPKM
  STAG3L2 Expression level (FPKM): 2.72 FPKM
  STAG3L4 Expression level (FPKM): 2.35 FPKM
  STAP2 Expression level (FPKM): 0.83 FPKM
  SUZ12P Expression level (FPKM): 1.31 FPKM
  TAC1 Expression level (FPKM): 5.72 FPKM
  TCEANC2 Expression level (FPKM): 2.9 FPKM
  TCN2 Expression level (FPKM): 0.69 FPKM
  TEN1 Expression level (FPKM): 3.43 FPKM
  THOC5 Expression level (FPKM): 5.02 FPKM
  TIMM10 Expression level (FPKM): 25.23 FPKM
  TMEM41B Expression level (FPKM): 19.19 FPKM
  TMEM92 Expression level (FPKM): 0.97 FPKM
  TMEM159 Expression level (FPKM): 8.54 FPKM
  TRIM39-RPP21 Expression level (FPKM): 1.26 FPKM
  TRIML2 Expression level (FPKM): 1.8 FPKM
  TSEN34 Expression level (FPKM): 1.75 FPKM
  TTC27 Expression level (FPKM): 0.56 FPKM
  TTC28-AS1 Expression level (FPKM): 7.79 FPKM
  UBTFL1 Expression level (FPKM): 120.09 FPKM
  UTP3 Expression level (FPKM): 2.98 FPKM
  UTP23 Expression level (FPKM): 3.29 FPKM
  UTS2 Expression level (FPKM): 1.14 FPKM
  VAMP1 Expression level (FPKM): 13.05 FPKM
  VCX2 Expression level (FPKM): 0.24 FPKM
  VCX Expression level (FPKM): 0.23 FPKM
  VPS54 Expression level (FPKM): 3.79 FPKM
  WDR77 Expression level (FPKM): 3.45 FPKM
  XAGE5 Expression level (FPKM): 0.11 FPKM
  ZCCHC10 Expression level (FPKM): 15.69 FPKM
  ZFYVE19 Expression level (FPKM): 4.05 FPKM
  ZNF92 Expression level (FPKM): 21.84 FPKM
  ZNF100 Expression level (FPKM): 3.76 FPKM
  ZNF174 Expression level (FPKM): 1.13 FPKM
  ZNF208 Expression level (FPKM): 1.74 FPKM
  ZNF254 Expression level (FPKM): 1.32 FPKM
  ZNF273 Expression level (FPKM): 4.43 FPKM
  ZNF280A Expression level (FPKM): 84.94 FPKM
  ZNF326 Expression level (FPKM): 2.8 FPKM
  ZNF345 Expression level (FPKM): 1.41 FPKM
  ZNF486 Expression level (FPKM): 2.77 FPKM
  ZNF487P Expression level (FPKM): 3.02 FPKM
  ZNF625-ZNF20 Expression level (FPKM): 1.95 FPKM
  ZNF625 Expression level (FPKM): 1 FPKM
  ZNF669 Expression level (FPKM): 8.14 FPKM
  ZNF675 Expression level (FPKM): 15.04 FPKM
  ZNF676 Expression level (FPKM): 4.61 FPKM
  ZNF679 Expression level (FPKM): 86.94 FPKM
  ZNF680 Expression level (FPKM): 5.58 FPKM
  ZNF684 Expression level (FPKM): 7.21 FPKM
  ZNF700 Expression level (FPKM): 1.86 FPKM
  ZNF724P Expression level (FPKM): 13.16 FPKM
  ZNF729 Expression level (FPKM): 0.94 FPKM
  ZNF735 Expression level (FPKM): 33.19 FPKM
  ZNF789 Expression level (FPKM): 5.2 FPKM
  ZNF791 Expression level (FPKM): 3.79 FPKM
  ZNF826P Expression level (FPKM): 2.07 FPKM
  ZNHIT6 Expression level (FPKM): 3.88 FPKM
